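In this assay, cells in 96-well plates receive the compound at five concentrations for 48 hours. Endpoints are linearly interpolated between the surrounding concentrations. Here, GI50 denotes the concentration required for 50% inhibition of growth. At the TGI there is no net growth.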
How the values were obtained:
Assay in all cases: inhibition of tumour cell growth, NCI panel, 48 h
786-0 renal = test system: 786-0 renal
A498 renal = test system: A498 renal
A549 NSCLC = test system: A549 NSCLC
ACHN renal = test system: ACHN renal
BT-549 breast = test system: BT-549 breast
CAKI-1 renal = test system: CAKI-1 renal
COLO 205 colon = test system: COLO 205 colon
DU-145 prostate = test system: DU-145 prostate
EKVX NSCLC = test system: EKVX NSCLC
HCT-116 colon = test system: HCT-116 colon
HCT-15 colon = test system: HCT-15 colon
HL-60(TB) leukemia = test system: HL-60(TB) leukemia
HOP-62 NSCLC = test system: HOP-62 NSCLC
HOP-92 NSCLC = test system: HOP-92 NSCLC
HS 578T breast = test system: HS 578T breast
HT29 colon = test system: HT29 colon
IGROV1 ovarian = test system: IGROV1 ovarian
K-562 leukemia = test system: K-562 leukemia
KM12 colon = test system: KM12 colon
LOX IMVI melanoma = test system: LOX IMVI melanoma
M14 melanoma = test system: M14 melanoma
MALME-3M melanoma = test system: MALME-3M melanoma
MCF7 breast = test system: MCF7 breast
MDA-MB-231 breast = test system: MDA-MB-231 breast
MDA-MB-435 = test system: MDA-MB-435
NCI-H226 lung = test system: NCI-H226 lung
NCI-H23 lung = test system: NCI-H23 lung
NCI-H460 lung = test system: NCI-H460 lung
NCI-H522 lung = test system: NCI-H522 lung
NCI/ADR-RES ovarian = test system: NCI/ADR-RES ovarian
OVCAR-3 ovarian = test system: OVCAR-3 ovarian
OVCAR-4 ovarian = test system: OVCAR-4 ovarian
OVCAR-5 ovarian = test system: OVCAR-5 ovarian
OVCAR-8 ovarian = test system: OVCAR-8 ovarian
PC-3 prostate = test system: PC-3 prostate
RXF 393 renal = test system: RXF 393 renal
SF-268 CNS = test system: SF-268 CNS
SF-295 CNS = test system: SF-295 CNS
SF-539 CNS = test system: SF-539 CNS
SK-MEL-2 melanoma = test system: SK-MEL-2 melanoma
SK-MEL-28 melanoma = test system: SK-MEL-28 melanoma
SK-MEL-5 melanoma = test system: SK-MEL-5 melanoma
SK-OV-3 ovarian = test system: SK-OV-3 ovarian
SN12C renal = test system: SN12C renal
SNB-19 CNS = test system: SNB-19 CNS
SNB-75 CNS = test system: SNB-75 CNS
SW-620 colon = test system: SW-620 colon
T-47D breast = test system: T-47D breast
TK-10 renal = test system: TK-10 renal
U251 CNS = test system: U251 CNS
UACC-257 melanoma = test system: UACC-257 melanoma
UACC-62 melanoma = test system: UACC-62 melanoma
UO-31 renal = test system: UO-31 renal
CCRF-CEM leukemia = test system: CCRF-CEM leukemia
HCC-2998 colon = test system: HCC-2998 colon
MOLT-4 leukemia = test system: MOLT-4 leukemia
RPMI-8226 leukemia = test system: RPMI-8226 leukemia

## CCOC(=O)C1=C(C)NC(=O)NC1c1ccc(N(CCCl)CCCl)cc1Cl (configuration not stated)
786-0 renal
  TGI: 29.2 µM
A498 renal
  TGI: 29.4 µM
A549 NSCLC
  TGI: 26.6 µM
ACHN renal
  TGI: 27.5 µM
BT-549 breast
  TGI: 28.9 µM
CAKI-1 renal
  TGI: 30.9 µM
COLO 205 colon
  TGI: 32.6 µM
DU-145 prostate
  TGI: 32.1 µM
EKVX NSCLC
  TGI: 45.8 µM
HCT-116 colon
  TGI: 27.4 µM
HCT-15 colon
  TGI: 30.8 µM
HL-60(TB) leukemia
  TGI: 13.4 µM
HOP-62 NSCLC
  TGI: 28.5 µM
HOP-92 NSCLC
  TGI: 25.7 µM
HS 578T breast
  TGI: 36.1 µM
HT29 colon
  TGI: 29.5 µM
IGROV1 ovarian
  TGI: 28.4 µM
K-562 leukemia
  TGI: 24.3 µM
KM12 colon
  TGI: 33.9 µM
LOX IMVI melanoma
  TGI: 29.4 µM
M14 melanoma
  TGI: 29.2 µM
MALME-3M melanoma
  TGI: 28.1 µM
MCF7 breast
  TGI: 26.5 µM
MDA-MB-231 breast
  TGI: 26.5 µM
MDA-MB-435
  TGI: 33.1 µM
NCI-H226 lung
  TGI: 28.8 µM
NCI-H23 lung
  TGI: 32.7 µM
NCI-H460 lung
  TGI: 25.6 µM
NCI-H522 lung
  TGI: 26.4 µM
NCI/ADR-RES ovarian
  TGI: 30.3 µM
OVCAR-3 ovarian
  TGI: 28.8 µM
OVCAR-4 ovarian
  TGI: 33.1 µM
OVCAR-5 ovarian
  TGI: 31.8 µM
OVCAR-8 ovarian
  TGI: 25.6 µM
PC-3 prostate
  TGI: 28.5 µM
RXF 393 renal
  TGI: 30.8 µM
SF-268 CNS
  TGI: 28.8 µM
SF-295 CNS
  TGI: 29.2 µM
SF-539 CNS
  TGI: 30.9 µM
SK-MEL-2 melanoma
  TGI: 29.8 µM
SK-MEL-28 melanoma
  TGI: 31.4 µM
SK-MEL-5 melanoma
  TGI: 27.8 µM
SK-OV-3 ovarian
  TGI: 33.6 µM
SN12C renal
  TGI: 29.8 µM
SNB-19 CNS
  TGI: 31.2 µM
SNB-75 CNS
  TGI: 28.1 µM
SW-620 colon
  TGI: 31.8 µM
T-47D breast
  TGI: 19.5 µM
TK-10 renal
  TGI: 33.6 µM
U251 CNS
  TGI: 30.2 µM
UACC-257 melanoma
  TGI: 29.5 µM
UACC-62 melanoma
  TGI: 22.4 µM
UO-31 renal
  TGI: 27.3 µM

## CCOc1cc(F)c([N+](=O)[O-])cc1[N+](=O)[O-]
786-0 renal
  GI50: 3.77 µM
  TGI: 13.9 µM
A498 renal
  GI50: 5.81 µM
  TGI: 18.2 µM
A549 NSCLC
  GI50: 3.68 µM
  TGI: 14.9 µM
ACHN renal
  GI50: 2.02 µM
  TGI: 4.81 µM
BT-549 breast
  GI50: 3.12 µM
  TGI: 11.2 µM
CAKI-1 renal
  GI50: 1.19 µM
  TGI: 2.42 µM
CCRF-CEM leukemia
  GI50: 2.68 µM
  TGI: 6.4 µM
COLO 205 colon
  GI50: 2.03 µM
  TGI: 3.88 µM
DU-145 prostate
  GI50: 1.99 µM
  TGI: 4.04 µM
EKVX NSCLC
  GI50: 1.85 µM
  TGI: 4.5 µM
HCC-2998 colon
  GI50: 1.87 µM
  TGI: 3.31 µM
HCT-116 colon
  GI50: 1.64 µM
  TGI: 2.99 µM
HCT-15 colon
  GI50: 2.71 µM
  TGI: 9.22 µM
HL-60(TB) leukemia
  GI50: 1.77 µM
  TGI: 4.81 µM
HOP-62 NSCLC
  GI50: 9.35 µM
  TGI: 21.6 µM
HS 578T breast
  GI50: 2.48 µM
  TGI: 7.97 µM
K-562 leukemia
  GI50: 3.01 µM
  TGI: 57 µM
KM12 colon
  GI50: 1.81 µM
  TGI: 3.49 µM
LOX IMVI melanoma
  GI50: 1.66 µM
  TGI: 3.02 µM
M14 melanoma
  GI50: 1.67 µM
  TGI: 3.03 µM
MCF7 breast
  GI50: 0.886 µM
  TGI: 17.3 µM
MDA-MB-231 breast
  GI50: 1.99 µM
  TGI: 4.39 µM
MDA-MB-435
  GI50: 2.59 µM
  TGI: 7.31 µM
MOLT-4 leukemia
  GI50: 2.85 µM
  TGI: 8.02 µM
NCI-H226 lung
  GI50: 2.81 µM
  TGI: 8.48 µM
NCI-H23 lung
  GI50: 2.42 µM
  TGI: 5.56 µM
NCI-H460 lung
  GI50: 2.38 µM
  TGI: 5.35 µM
NCI-H522 lung
  GI50: 1.5 µM
  TGI: 3.24 µM
NCI/ADR-RES ovarian
  GI50: 2.88 µM
  TGI: 8 µM
OVCAR-3 ovarian
  GI50: 1.83 µM
  TGI: 3.23 µM
OVCAR-4 ovarian
  GI50: 1.92 µM
  TGI: 3.48 µM
OVCAR-5 ovarian
  GI50: 1.8 µM
  TGI: 4.34 µM
OVCAR-8 ovarian
  GI50: 2.57 µM
  TGI: 6.64 µM
PC-3 prostate
  GI50: 4.63 µM
  TGI: 18 µM
RPMI-8226 leukemia
  GI50: 3.43 µM
  TGI: 11.2 µM
RXF 393 renal
  GI50: 1.89 µM
  TGI: 3.37 µM
SF-268 CNS
  GI50: 2.56 µM
  TGI: 6.46 µM
SF-295 CNS
  GI50: 3.19 µM
  TGI: 12.8 µM
SF-539 CNS
  GI50: 1.85 µM
  TGI: 3.85 µM
SK-MEL-2 melanoma
  GI50: 1.89 µM
  TGI: 4.4 µM
SK-MEL-28 melanoma
  GI50: 2.5 µM
  TGI: 6.12 µM
SK-MEL-5 melanoma
  GI50: 2.99 µM
  TGI: 8.4 µM
SK-OV-3 ovarian
  GI50: 14.5 µM
  TGI: 27.6 µM
SN12C renal
  GI50: 2 µM
  TGI: 4.32 µM
SNB-19 CNS
  GI50: 3.82 µM
  TGI: 13.3 µM
SNB-75 CNS
  GI50: 3.58 µM
  TGI: 14.1 µM
SW-620 colon
  GI50: 1.78 µM
  TGI: 3.3 µM
T-47D breast
  GI50: 3.31 µM
  TGI: 14.7 µM
TK-10 renal
  GI50: 2.91 µM
  TGI: 10.1 µM
U251 CNS
  GI50: 1.69 µM
  TGI: 3.24 µM
UACC-257 melanoma
  GI50: 1.6 µM
  TGI: 3.23 µM
UACC-62 melanoma
  GI50: 1.73 µM
  TGI: 3.75 µM

From PubChem BioAssay (NCI)
